This is an account of results in US6723680B2, “Composition for regulation of gametophytic self-incompatibility, control method of gametophytic self-incompatibility of a plant and the plant self-pollinated by using said control method” (Istech Co., Ltd., priority 2000, dated 2004).

This assay relates to style-specific S1 RNase and S2 RNase. Description: Inhibition of style-specific RNase activity. Type of assay: biochemical, Fuji apple. The following applies: 1 mM DEPC. Here is the method: The activity variation of the style-specific S1 RNase and S2 RNase purified in the Example 1-4 was investigated by adding chemicals acting as an inhibitor of protein degradation enzyme. RNase activity was measured by adding general stimulators of RNase activity, inhibitors of RNase activity commercially available and inhibitor candidate of a style-specific RNase of the present invention (Singh A. et al., Plant Physiology, 96:61-68, 1991). Among them, 1 mM EDTA, which is a representative inhibitor of protein degradation enzyme, 1 mM CaCl2, a stimulator of RNase activity, 1 mM DEPC (Sigma), a fatally poisonous inhibitor of RNase activity commercially available, and 1 mM ZnSO4 and 1 mM CuSO4, inhibitor candidates of the style-specific RNase was added respectively to mesure RNase activity.

On to `CCOC(=O)OC(=O)OCC` [DEPC], for which the “style-specific RNase activity” value is given as “inhibited”.
